Laboratory results taken from paper PMC12181260, “Design and synthesis of novel pyridopyrimidine moieties linked to coumarin ring of potentially active cytotoxic agents and their docking study” (Scientific Reports, 2025).
≈ marks a conversion by molar mass, not a printed value.

Key:
VERO = test: Cytotoxicity (anticancer screening) on VERO; assay type: cell-based; settings: Chlorocebus sabaeus, normal adult African green monkey kidney cell line, 72 h of incubation
Source text: (§1) Keeping the aforementioned details in mind, the objective of this study was to synthesize new pharmaceuticals for anticancer assessment as a trial to produce newer antitumor drugs with increased activity and minimal adverse effects. Human hepatocellular liver carcinoma cell line (HepG2), human lung fibroblast cell line (WI-38), human breast adenocarcinoma cell line (MCF-7), and normal adult African green monkey kidney cell line (VERO) were the four different types of […] cell lines used to test the anticancer activity of all newly synthesized compounds (Fig. 5).
(§2) It was carried out according to the previously reported work[48].

HepG2 = test: Cytotoxicity (anticancer screening) on HepG2; assay type: cell-based, human; settings: for IC50: HepG2, human hepatocellular liver carcinoma cell line, 72 h of incubation; for activity class against HepG2: SAR statement, four tested cell lines
Source text: as §1, §2

WI-38 = test: Cytotoxicity (anticancer screening) on WI-38; assay type: cell-based, human; settings: for IC50: WI-38, human lung fibroblast cell line, 72 h of incubation; for activity class against WI-38: SAR statement, four tested cell lines
Source text: as §1, §2

MCF-7 = test: Cytotoxicity (anticancer screening) on MCF-7; assay type: cell-based, human; settings: for IC50: MCF7, human breast adenocarcinoma cell line, 72 h of incubation; for activity class against MCF-7: SAR statement, four tested cell lines
Source text: as §1, §2

SMILES	IC50 (VERO)	IC50 (HepG2)	IC50 (WI-38)	IC50 (MCF-7)	activity class against HepG2 (HepG2)	activity class against WI-38 (WI-38)	activity class against MCF-7 (MCF-7)
Cc1cc(=O)oc2c1ccc1oc(=N)c(C#N)cc12 [Compound 3, 8-imino-4-methyl-2-oxo-2 H,8 H-pyrano[2,3-f]chromene-9-carbonitrile]	71.02 ± 0.05 µg/mL (≈ 282 µM)	59 ± 0.22 µg/mL (≈ 234 µM)	68.2 ± 0.07 µg/mL (≈ 270 µM)	70 ± 0.06 µg/mL (≈ 278 µM)			
Cc1cc(=O)oc2c1ccc1oc3nc(CC#N)nc(=N)c-3cc12 [Compound 4, 2-(11-Imino-4-methyl-2-oxo-2 H,11 H-pyrano[2’,3’:5,6]chromeno[2,3-d]pyrimidin-9-yl) acetonitrile]	34.1 ± 0.15 µg/mL (≈ 107 µM)	24.5 ± 0.11 µg/mL (≈ 77 µM)	31 ± 0.01 µg/mL (≈ 97.4 µM)	31.4 ± 0.11 µg/mL (≈ 98.7 µM)			
Cc1cc(=O)oc2c3c(ccc12)Oc1nc(CC#N)nc2nc(N)c(C#N)c-3c12 [Compound 5, 2-amino-5-(cyanomethyl)-10-methyl-12-oxo-12 H-7,13-dioxa-3,4,6-triazabenzo[no]tetraphene-1-carbonitrile]	31.2 ± 0.02 µg/mL (≈ 81.6 µM)	21.2 ± 1.22 µg/mL (≈ 55.4 µM)	27.5 ± 0.31 µg/mL (≈ 71.9 µM)	30 ± 1.01 µg/mL (≈ 78.5 µM)			
O=c1[nH]cc(F)c(=O)[nH]1 [Compound 5-Flu, 5-fluorouracil, reference compound]	4 ± 0.04 µg/mL (≈ 30.8 µM)	2.5 ± 1.03 µg/mL (≈ 19.2 µM)	5.5 µg/mL (≈ 42.3 µM)	3 ± 0.02 µg/mL (≈ 23.1 µM)			
Cc1cc(=O)oc2c3c(ccc12)Oc1nc(CC#N)nc2nc(-c4ccccc4)cc-3c12 [Compound 6, 2-(10-Methyl-12-oxo-2-phenyl-12 H-7,13-dioxa-3,4,6-triazabenzo[no]tetraphene-5-yl) acetonitrile]	24.1 ± 0.19 µg/mL (≈ 57.6 µM)	19.1 ± 1.13 µg/mL (≈ 45.6 µM)	26 ± 0.21 µg/mL (≈ 62.1 µM)	22.5 ± 0.04 µg/mL (≈ 53.8 µM)			
Cc1cc(=O)oc2c3c(ccc12)Oc1nc(CC#N)nc2nc4c(c-3c12)CCC4 [Compound 7, 2-(14-Methyl-12-oxo-9,10-dihydro-8 H,12 H-3,11-dioxa-4,6,7-triazaindeno[6,5,4-no]tetraphen-5-yl)acetonitrile]	11.5 ± 0.05 µg/mL (≈ 30.1 µM)	9.6 ± 1.22 µg/mL (≈ 25.1 µM)	9.9 ± 1.04 µg/mL (≈ 25.9 µM)	9.5 ± 0.04 µg/mL (≈ 24.8 µM)	very strong (1–10 (very strong))	very strong (1–10 (very strong))	very strong (1–10 (very strong))
Cc1cc(=O)oc2c3c(ccc12)Oc1nc(CC#N)nc2nc4c(c-3c12)CCCC4 [Compound 8, 2-(15-Methyl-13-oxo-8,9,10,11-tetrahydro-13 H-3,12-dioxa-4,6,7-triazanaphtho[3,2,1-no]tetraphen-5-yl)acetonitrile]	5.7 ± 0.06 µg/mL (≈ 14.4 µM)	4.9 ± 0.11 µg/mL (≈ 12.4 µM)	7.5 ± 0.01 µg/mL (≈ 18.9 µM)	5.1 ± 0.18 µg/mL (≈ 12.9 µM)	very strong (1–10 (very strong))	very strong (1–10 (very strong))	very strong (1–10 (very strong))
Cc1cc(=O)oc2c3c(ccc12)Oc1nc(CC#N)nc2nc4c(c-3c12)CCCCC4 [Compound 9, 2-(16-Methyl-14-oxo-9,10,11,12-tetrahydro-8 H,14 H-3,13-dioxa-4,6,7-triazacyclohepta[4,5]benzo[1,2,3-no]tetraphen-5-yl)acetonitrile]	6.6 ± 0.02 µg/mL (≈ 16.1 µM)	5.4 ± 1.22 µg/mL (≈ 13.2 µM)	5.9 ± 0.03 µg/mL (≈ 14.4 µM)	7.2 ± 1.02 µg/mL (≈ 17.5 µM)	very strong (1–10 (very strong))	very strong (1–10 (very strong))	very strong (1–10 (very strong))
Cc1cc(=O)oc2c3c(ccc12)Oc1nc(CC#N)nc2nc4c(c-3c12)CCCCCC4 [Compound 10, 2-(17-Methyl-15-oxo-8,9,10,11,12,13-hexahydro-15 H-3,14-dioxa-4,6,7-triazacycloocta[4,5]benzo[1,2,3-no]tetraphen-5-yl)acetonitrile]	8.2 ± 1.04 µg/mL (≈ 19.3 µM)	5.8 ± 1.03 µg/mL (≈ 13.7 µM)	7.8 ± 0.1 µg/mL (≈ 18.4 µM)	8.9 ± 1.02 µg/mL (≈ 21 µM)	very strong (1–10 (very strong))	very strong (1–10 (very strong))	very strong (1–10 (very strong))
Cc1cc(=O)oc2c1ccc1[nH]c(=O)c(C#N)cc12 [Compound 11, 4-Methyl-2,8-dioxo-7,8-dihydro-2 H-pyrano[2,3-f]quinoline-9-carbonitrile]	35.5 ± 0.01 µg/mL (≈ 141 µM)	32.2 ± 1.22 µg/mL (≈ 128 µM)	39.01 ± 0.07 µg/mL (≈ 155 µM)	33.3 ± 1.06 µg/mL (≈ 132 µM)			
Cc1cc(=O)oc2c1ccc1oc(=N)c(C(N)=O)cc12 [Compound 12, 8-Imino-4-methyl-2-oxo-2 H,8 H-pyrano[2,3-f]chromene-9-carboxamide]	51.3 ± 1.05 µg/mL (≈ 190 µM)	37.5 ± 1.13 µg/mL (≈ 139 µM)	48.2 ± 1.04 µg/mL (≈ 178 µM)	49.4 ± 0.19 µg/mL (≈ 183 µM)			
Cc1cc(=O)oc2c3c(ccc12)NC(=O)C1=C(N)OC2=C(CCC2)C13 (centres unmarked) [Compound 13, 2-Amino-7-methyl-10c,11,12,13-tetrahydro-3 H-cyclopenta[5,6]pyrano[3,4-c]pyrano[2,3-f]quinoline-3,9(4 H)-dione]	58.2 ± 1.05 µg/mL (≈ 173 µM)	45.2 ± 1.13 µg/mL (≈ 134 µM)	56 ± 1.14 µg/mL (≈ 166 µM)	53 ± 0.19 µg/mL (≈ 158 µM)			
Cc1cc(=O)oc2c3c(ccc12)OC(N)=C1C(=O)NC2=C(CCC2)C13 (centres unmarked) [Compound 14, 3-Amino-7-methyl-10c,11,12,13-tetrahydro-9 H-cyclopenta[b]pyrano [2’,3’:5,6]chromeno [4,3-d]pyridine-2,9(1 H)-dione]	58 ± 1.02 µg/mL (≈ 172 µM)	49 ± 1.22 µg/mL (≈ 146 µM)	56 ± 0.32 µg/mL (≈ 166 µM)	52 ± 0.01 µg/mL (≈ 155 µM)			
Cc1cc(=O)oc2c1ccc1oc(=O)c(C#N)cc12 [Compound 15, 4-Methyl-2,8-dioxo-2 H,8 H-pyrano[2,3-f]chromene-9-carbonitrile]	40.3 ± 1.19 µg/mL (≈ 159 µM)	35.2 ± 1.13 µg/mL (≈ 139 µM)	38 ± 1.22 µg/mL (≈ 150 µM)	37.03 ± 0.04 µg/mL (≈ 146 µM)			
CCOC(=O)c1cc2c(ccc3c(C)cc(=O)oc32)oc1=N [Compound 16, ethyl 8-imino-4-methyl-2-oxo-2 H,8 H-pyrano[2,3-f]chromene-9-carboxylate]	57.5 ± 0.05 µg/mL (≈ 192 µM)	52.5 ± 1.22 µg/mL (≈ 175 µM)	59.3 ± 1.04 µg/mL (≈ 198 µM)	52.1 ± 0.04 µg/mL (≈ 174 µM)			
Cc1cc(=O)oc2c1ccc1oc(=N)c3c(=O)oc4c(c3c12)CCC4 [Compound 17, 3-Imino-7-methyl-3,11,12,13-tetrahydro-2 H,9 H-cyclopenta[5,6]pyrano[3,4-c]pyrano [2,3-f]chromene-2,9-dione]	56.2 ± 1.06 µg/mL (≈ 168 µM)	40.2 ± 0.23 µg/mL (≈ 120 µM)	53.5 ± 0.1 µg/mL (≈ 160 µM)	52.5 ± 0.18 µg/mL (≈ 157 µM)			
CCOC(=O)c1cc2c(ccc3c(C)cc(=O)oc32)oc1=O [Compound 18, Ethyl 4-methyl-2,8-dioxo-2 H,8 H-pyrano[2,3-f]chromene-9-carboxylate]	66.5 ± 1.02 µg/mL (≈ 221 µM)	54 ± 0.22 µg/mL (≈ 180 µM)	60.4 ± 0.03 µg/mL (≈ 201 µM)	57 ± 1.23 µg/mL (≈ 190 µM)			
